US10670576B2, “Device and method for measuring impedance in organotypic tissues” (Universität Leipzig, priority 2008, dated 2020)

Tested on: hippocampal slice cultures
Assay: Impedance measurement (TIECIR) of organotypic hippocampal slice cultures after induction of tau-hyperphosphorylation
Assay type: cell-based
Settings: 1 μM, hippocampal slices of 8-9 day old rats, 7 days in culture, 100 Hz to 1 MHz, 10 mV, stable for 9 hours before application, remained small within the next seven hours
Protocol: The impedance changes caused by tau-hyperphosphorylation (FIG. 11) of hippocampal slices that were prepared from 8-9 day old rats were measured using the device according to the present invention. Six to eight hippocampal slices of 400 μm thickness were places on a aluminiumoxyd membrane (0.02 μm pore size) of a 6-well recording chamber and cultured for 7 days in 50% minimum essential media, 25% Hank's media, and 25% horse serum supplemented with L-glutamine and antibiotics. Impedance recording was performed by using a Agilent 4294A impedance analyser (Agilent Technologies Deutschland GmbH, Germany) in combination with a multiplexer (NI-SCXI-1153, National Instruments, USA).
24 hours before impedance measurement was carried out, medium replaced by fresh culture medium. The impedance was recorded in a frequency range of 100 Hz to 1 MHz by applying a voltage of 10 mV across a large top electrode and 60 substrate integrated bottom electrodes of 30 μm in diameter.
For measuring hippocampal slice cultures, the TIECIR method was used. Organotypic slice cultures were transiently covered with medium during impedance measurement, which usually takes less than 30 seconds for a single bottom electrode. […]

## C=C1[C@@H](O)[C@@H]2O[C@]3(CC[C@H](/C=C/[C@@H](C)[C@@H]4CC(C)=C[C@@]5(O[C@H](C[C@@](C)(O)C(=O)O)CC[C@H]5O)O4)O3)CC[C@H]2O[C@@H]1[C@@H](O)C[C@H](C)[C@H]1O[C@@]2(CCCCO2)CC[C@H]1C [ocadaic acid]
  normalized impedance (normalized against non-covered membrane): 10%
